By EC50 is commonly meant the midpoint of the concentration-response curve. A word on the IC50: it is the point on the concentration scale where inhibition reaches its midpoint.

Drawing on PubChem BioAssay AID179 (DTP/NCI, 2004), this text covers outcome, EC50 and IC50 for 69 compounds.

The source made the active and inactive calls.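 How the source made its calls: active means compounds giving half or more protection of infected cells from virus-caused growth loss, again on retest; inactive means the rest.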

The experiment deals with CEM cells HIV-1 protection, formazan growth assay. Description: NCI AIDS Antiviral Assay. The following applies: for IC50: measured here: growth of uninfected CEM cells. Put shortly: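 Steps: treat uninfected and HIV-1-infected human CEM cells at five drug levels; quantify growth by soluble formazan; retest any compound reaching 50% protection; classify actives from the retest.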

`O=C1OC(=O)C2C1C1(c3ccccc3)C(=O)C2(c2ccccc2)C(c2ccccc2)=C1c1ccccc1` (stereo not drawn): the result was inactive.

Take `CCCCCCCCOCC(O)CO` (stereo not drawn): the outcome was inactive.

Regarding `CC(=O)Nc1ccc(CNc2cc(=O)[nH]c(=O)[nH]2)cc1`, the EC50 was above 200 µM and the IC50 was above 200 µM.

As for `O=C(Nc1cccc(NC(=O)C(=O)C2CCC3=C(Sc4ccccc4N3)C2=O)n1)C(=O)C1CCC2=C(Sc3ccccc3N2)C1=O` (stereo not drawn), the EC50 was above 75.9 µM and the IC50 worked out at 63.1 µM.

As for `Cc1cs/c(=N\C(P(=O)(O)O)P(=O)(O)O)n1C`, the EC50 was above 100 µM and the IC50 is above 100 µM.

For the compound `O=C1/C(=C/c2cc3c(=O)c4ccccc4sc3s2)NC(=S)N1c1ccccc1`, the EC50 is above 200 µM and the IC50 was above 200 µM.

Take `COc1cc(CNc2nc3c(N)cc(C(F)(F)F)cc3nc2-c2ccccc2)cc(OC)c1OC`: the EC50 was above 20.4 µM and the IC50 is above 20.4 µM.

Regarding `COCC(C)(C)N=CN1Cc2cc3ccccc3nc2C1`, the EC50 was above 178 µM and the IC50 is above 178 µM.

On to `Nc1nc(Cl)cc(NCCCCCCCCCCNc2cc(Cl)nc(N)n2)n1`, for which the result was inactive.

Regarding `NCC(CS)C(=O)NC(CS)C(=O)NC(CS)C(=O)NCCNc1ccc(NCCNC(=O)C(CS)NC(=O)C(CS)NC(=O)C(CN)CS)c2c1C(=O)c1c(O)ccc(O)c1C2=O` (stereo not drawn), the EC50 was above 2 µM and the IC50 is 0.0126 µM.

For the compound `N#CCCN(CCC#N)C(=O)Nc1cccc2ccccc12`, the outcome was inactive.

With `O=C1CC(NC(=O)C(F)(F)F)c2c(Br)sc(N3CCC(c4ccccc4)CC3)c21` (stereo not drawn), the EC50 is above 200 µM and the IC50 was 145 µM.

Consider `CCCCNC(=S)Nc1nc(C(=O)NNC(=S)NCC)cs1`, for which the EC50 is above 200 µM and the IC50 was above 200 µM.

On to `COc1cc(CC2C(=O)OCC2C(=O)c2ccc3c(c2)OCO3)cc(OC)c1OC` (stereo not drawn), for which the EC50 was above 40.7 µM and the IC50 was above 40.7 µM.

On to `CCCSS/C(CCO)=C(\C)N(C=O)Cc1cnc(C)nc1N`, for which the EC50 is above 200 µM and the IC50 amounted to 10.5 µM.

As for `COc1ccc(CC2=CC(=O)C(=O)C=C2C)cc1`, the EC50 is above 56.2 µM and the half-inhibitory concentration (IC50) is 30.2 µM.

For `CCOc1ccccc1NC(=O)C1=C(C)NC(C)=C(C(=O)Nc2ccccc2OCC)C1c1ccc([N+](=O)[O-])cc1`, the EC50 is above 9.33 µM and the IC50 was above 9.33 µM.

For `CC(=O)OCC1OC(N2C(=S)N[C@H]([C@@H](O)[C@H](O)[C@H](O)CO)[C@H]2O)C(OC(C)=O)C(OC(C)=O)C1OC(C)=O` (stereo partly drawn), the EC50 is above 200 µM and the IC50 was above 200 µM.

Regarding `Nc1nc(N)nc(-c2ccccc2-c2nc(N)nc(N)n2)n1`, the EC50 was above 200 µM and the IC50 was above 200 µM.

As to `CCOC(=O)C(=Cc1ccc(N(C)C)cc1)C(=O)OCC`, the EC50 is above 89.1 µM and the IC50 was 46.8 µM.

Consider `c1cc(CSP234N5CCN2CCN3CCN4CC5)ccc1CSP123N4CCN1CCN2CCN3CC4`, for which the EC50 was above 100 µM and the IC50 amounted to 36.3 µM.

As to `CC[C@H]1C[C@@H](O)[C@@H]2[C@H](O)[C@H](O)CN2C1`, the EC50 was above 200 µM and the IC50 is above 200 µM.

Take `OC(CC(O)(C(F)(F)F)C(F)(F)F)C(O)c1ccco1` (stereo not drawn): the EC50 is above 200 µM and the IC50 turned out to be 58.9 µM.

Take `CC(=O)OC1C=C2c3cc4c(c(O)c3C(=O)NC2[C@H](OC(C)=O)[C@@H]1OC(C)=O)OCO4` (stereo partly drawn): the result was inactive.

As for `CCCCCCc1cc(S(=O)(=O)O)c(O)cc1O`, the EC50 is above 200 µM and the IC50 is above 200 µM.

On to `CCC1C[N+]23CCc4c([nH]c5ccccc45)C2CC1CC3` (stereo not drawn), for which the EC50 was above 57.5 µM and the IC50 was above 57.5 µM.

Take `Cc1cc(C)c(OC(=O)Nc2cccc3ccccc23)c(-c2ccccc2)c1`: the EC50 was above 200 µM and the IC50 was 19.5 µM.

`CSC(=S)Nc1cc(C)ccn1`: the EC50 is above 200 µM and the IC50 was 155 µM.

Take `O=c1nc(NC2CCCCO2)ccn1CCO` (stereo not drawn): the EC50 was above 1050 µM and the IC50 is above 1050 µM.

Turning to `O=C(Cn1c2c(c3ccccc31)CCCC2)N1CCOCC1`, the EC50 was above 200 µM and the IC50 was above 200 µM.

For `CC(NC(=O)OCC[P+](c1ccccc1)(c1ccccc1)c1ccccc1)C(=O)O` (stereo not drawn), the EC50 was above 200 µM and the IC50 is 5.89 µM.

For the compound `CN1CCc2cc(O)c3cc2C1Cc1ccc(cc1)Oc1cc(ccc1OC(=O)C(C)(C)C)CC1c2c(cc(OC(=O)C(C)(C)C)c(OC(=O)C(C)(C)C)c2O3)CCN1C` (stereo not drawn), the outcome was inactive.

Regarding `CNc1ccc(/C=C2\C=Cc3ccccc32)cc1I`, the EC50 was above 20 µM and the IC50 came out at 3.39 µM.

Regarding `Cc1nc(SCC(=O)Nc2ccc(Cl)cc2)c2sc(=S)n(-c3ccccc3)c2n1`, the EC50 was above 200 µM and the IC50 is above 200 µM.

On to `CC(=O)OC1CC2C(C)(C)C(=O)C=C[C@]2(C)C2CCC3(C)C(c4ccoc4)[C@@H](O)[C@H]4O[C@]43[C@]12C` (stereo partly drawn), for which the EC50 was above 57.5 µM and the IC50 was 6.17 µM.

In the case of `COc1cc2c3c(c1OC)C1(C=CC(=O)C=C1)CC3N(C(=O)OC(C)(C)C(Cl)(Cl)Cl)CC2` (stereo not drawn), the result was inactive.

As to `CC(=O)O[C@]12CCCCCC1C1(O)C(O)CCCCC12` (stereo partly drawn), the EC50 was above 200 µM and the IC50 is above 200 µM.

For `N#Cc1nc(Nc2ccc(Cl)cc2)sc1N`, the EC50 is above 525 µM and the IC50 amounted to 9.77 µM.

Regarding `CC(C(=O)NCNC(=O)c1ccccc1)C(=O)Nc1ccccc1` (stereo not drawn), the result was inactive.

On to `O=c1n(N=S(=O)(c2ccccc2)c2ccccc2)c(=O)n2n1C1C=CC2CC1`, for which the EC50 was above 200 µM and the IC50 was above 200 µM.

For `C[n+]1c(-c2ccc(/C=N/NC(=O)c3cc(O)c(C(=O)N/N=C/c4ccc(-c5cn6ccccc6[n+]5C)cc4)cc3O)cc2)cn2ccccc21`, the EC50 was above 6.31 µM and the half-maximal inhibitory concentration (IC50) was above 6.31 µM.

On to `CCOC(=O)CCC1(C(=O)OCC)CCCCC1=O` (stereo not drawn), for which the EC50 is above 251 µM and the IC50 was above 251 µM.

Take `Cc1ccc(C2=NN(C)COC2C(F)(F)F)cc1` (stereo not drawn): the EC50 was above 28.2 µM and the IC50 was above 28.2 µM.

Regarding `O=C(OC1C2OC(=O)c3cc(O)c(O)c(O)c3Oc3cc4c(c(O)c3O)-c3c(cc(O)c(O)c3O)C(=O)OCC3OC(O)C(OC(=O)c5cc(O)c(O)c(O)c5Oc5cc6c(c(O)c5O)-c5c(cc(O)c(O)c5O)C(=O)OC1C(COC6=O)OC2O)C(OC(=O)c1cc(O)c(O)c(O)c1)C3OC4=O)c1cc(O)c(O)c(O)c1` (stereo not drawn), the 50% effective concentration (EC50) was above 69.2 µM and the IC50 turned out to be 34.7 µM.

As to `Cc1ccccc1N1C(=O)C2C=CC(n3[nH]c(=O)n(Cc4ccccc4)c3=O)CC2C1=O` (stereo not drawn), the EC50 was above 219 µM and the IC50 was above 219 µM.

On to `C[C@@H]([C@H]1CC[C@@]2(C)[C@@H]3CC[C@@H]4C(=CC3=CC[C@]12C)CC[C@H](N(C)C)C4(C)C)N(C)C`, for which the EC50 is above 200 µM and the IC50 is above 200 µM.

As to `C[N+](C)(C)CC1C2C=CC(C2)C1CO` (stereo not drawn), the EC50 is above 275 µM and the IC50 is above 275 µM.

For the compound `O=S(=O)(/N=C1/SC(=Nc2ccccc2)N(c2ccccc2)/C1=N/S(=O)(=O)c1ccccc1)c1ccccc1`, the EC50 was above 200 µM and the IC50 turned out to be 2.82 µM.

For the compound `Cc1cccc(C2=NC(=C3CCCCC3)C(=O)O2)c1`, the EC50 is above 200 µM and the concentration for half-maximal inhibition (IC50) stood at 38 µM.

`OC1COc2c3ccccc3nn2C1` (stereo not drawn): the EC50 was above 1320 µM and the IC50 is 871 µM.

On to `COc1ccc(C2CC(=O)c3cc(OC)ccc3O2)cc1` (stereo not drawn), for which the EC50 is above 200 µM and the IC50 is above 200 µM.

On to `COc1ccc(C(=C2C=CC=C2)c2ccc(OC)cc2)cc1`, for which the EC50 is above 200 µM and the IC50 stood at 52.5 µM.

On to `C[C@H]1CCC2C(OC(=O)[C@@H]2CN(C)C)[C@]2(C)C(=O)C=CC12O` (stereo partly drawn), for which the result was inactive.

On to `CCCc1c(C(=O)OCC)[nH]c(-c2ccc(-c3[nH]c(C(=O)OCC)c(CCC)c3C(=O)OCC)s2)c1C(=O)OCC`, for which the EC50 was above 4.68 µM and the IC50 is above 4.68 µM.

`CN(C)c1nc(NN)c2c(-c3ccccc3)c(-c3ccccc3)oc2n1`: the EC50 was above 100 µM and the IC50 is above 100 µM.

Turning to `Cc1ccccc1-n1c(=S)[nH]c2c(sc(=O)n2-c2ccccc2C)c1=O`, the EC50 is above 3.8 µM and the IC50 is above 3.8 µM.

`O=C(Nc1ccc(/C=C/c2ccc(NC(=O)c3ccc4cccnc4c3O)cc2S(=O)(=O)O)c(S(=O)(=O)O)c1)c1ccc2cccnc2c1O`: the EC50 is above 100 µM and the IC50 was 60.3 µM.

`C[n+]1cc(C(O)c2ccc3c(c2)OCO3)c2ccccc2c1` (stereo not drawn): the EC50 is above 100 µM and the IC50 was 29.5 µM.

As for `CNc1ccc(N=O)cc1`, the EC50 is above 200 µM and the half-maximal inhibitory concentration (IC50) was 1.07 µM.

On to `CC(C)N(C(=O)C12C3C4C5(C#N)C3C1(I)C5C42I)C(C)C` (stereo not drawn), for which the EC50 was above 14.1 µM and the IC50 was above 14.1 µM.

In the case of `CC(=O)c1c(O)c2ccccc2oc1=O`, the EC50 was above 200 µM and the IC50 was 120 µM.

As to `COc1ccc(/C=N/Nc2ccc(S(=O)(=O)O)cc2)cc1`, the EC50 is above 759 µM and the half-inhibitory concentration (IC50) stood at 331 µM.

For the compound `Cc1ccc(N=NN(C)C)cc1NC(=O)NCC(=O)OC(C)(C)C`, the EC50 was above 200 µM and the IC50 came out at 107 µM.

For `COC(=O)[C@H]1C=C[C@@H](C)n2c(=O)c3cc4ccccc4cc3c(=O)n21`, the EC50 was above 21.4 µM and the IC50 was above 21.4 µM.

As to `O=[N+]([O-])c1ccc(C(Cl)S(=O)(=O)c2ccccc2)cc1` (stereo not drawn), the EC50 was above 83.2 µM and the half-maximal inhibitory concentration (IC50) came out at 4.79 µM.

Consider `CCCCCCCCCCCCCCCCCCOP1(=O)OCCO1`, for which the EC50 was above 50.1 µM and the IC50 was above 50.1 µM.

As to `NC(=S)N/N=C1\NC(=O)/C(=C/c2ccc3c(c2)OCO3)S1`, the EC50 was above 200 µM and the half-maximal inhibitory concentration (IC50) stood at 158 µM.

Consider `COc1cc2c(cc1OC)C(Cc1ccc(O)cc1)N(C)CC2` (stereo not drawn), for which the outcome was inactive.

On to `COC(=O)C1=C(C(=O)OC)C2(C)CCC(=O)C1O2` (stereo not drawn), for which the EC50 was above 200 µM and the IC50 was above 200 µM.
